According to ChEMBL document CHEMBL5143600, “Discovery and optimization of betulinic acid derivatives as novel potent CD73 inhibitors” (Bioorg Med Chem, 2022):
Calls of active or inactive are those of the source. No cut-off for these calls is given here.

Experiments:
[1] = target: T1, 5'-nucleotidase (Homo sapiens, UniProt P21589); assay: (§1) Inhibition of human CD73 assessed as reduction in inorganic phosphate release upon substrate hydrolysis using AMP[…] as substrate incubated for 1 hr followed by substrate addition and measured after 2 hrs by malachite green reagent based colorimetric assay
[2] = Selectivity index, ratio of IC50 for inhibition of mose CD73 to IC50 for inhibition of human CD73
[3] = target: T2, 5'-nucleotidase (Mus musculus, UniProt Q61503); assay: Inhibition of mouse CD73 assessed as reduction in inorganic phosphate release upon substrate hydrolysis using AMP[…] as substrate incubated for 1 hr followed by substrate addition and measured after 2 hrs by malachite green reagent based colorimetric assay
T2 sequence (Q61503 whole entry): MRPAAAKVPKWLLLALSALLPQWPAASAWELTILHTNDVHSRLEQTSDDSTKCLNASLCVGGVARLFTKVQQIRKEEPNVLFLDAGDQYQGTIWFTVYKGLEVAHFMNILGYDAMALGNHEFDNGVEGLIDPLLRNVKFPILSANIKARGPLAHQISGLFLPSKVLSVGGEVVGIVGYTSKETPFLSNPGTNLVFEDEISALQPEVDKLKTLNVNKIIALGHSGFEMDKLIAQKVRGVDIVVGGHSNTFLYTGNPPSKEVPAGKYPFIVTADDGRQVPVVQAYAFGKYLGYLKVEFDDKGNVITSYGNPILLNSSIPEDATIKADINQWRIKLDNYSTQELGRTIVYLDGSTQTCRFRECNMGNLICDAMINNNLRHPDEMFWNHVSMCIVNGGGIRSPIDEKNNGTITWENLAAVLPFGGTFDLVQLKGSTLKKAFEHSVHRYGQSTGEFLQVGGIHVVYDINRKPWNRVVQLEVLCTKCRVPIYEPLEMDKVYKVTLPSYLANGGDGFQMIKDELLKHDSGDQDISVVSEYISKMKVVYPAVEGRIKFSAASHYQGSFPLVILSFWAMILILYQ

[4] = test system: CD4+ve Th; assay: Induction of anti-CD3/CD28 antibodies-stimulated CD4-positive Th cell activation in C57BL/6J mouse assessed as reversal of AMP/EHNA-inhibited IFN-gamma production at 10 uM preincubated for 15 mins followed by AMP/EHNA addition and measured after 96 hrs by ELISA; format: functional, cell-based; details: time 5775.0 min
[5] = target: T1, 5'-nucleotidase; assay: as §1, with “Potency index, ratio of betulinic acid IC50 to test compound IC50 for inhibition” for “Inhibition”; details: time 3.0 hrs
[6] = test system: MIA PaCa-2; assay: Cytotoxicity against human MIA PaCa-2 cells assessed as inhibition of cell growth incubated for 72 hrs by CCK-8 assay; format: functional, cell-based; details: MIA PaCa-2, 72 h
[7] = test system: MDA-MB-231; assay: Cytotoxicity against human MDA-MB-231 cells assessed as inhibition of cell growth incubated for 72 hrs by CCK-8 assay; format: functional, cell-based; details: MDA-MB-231, 72 h

T1 sequence (P21589 whole entry): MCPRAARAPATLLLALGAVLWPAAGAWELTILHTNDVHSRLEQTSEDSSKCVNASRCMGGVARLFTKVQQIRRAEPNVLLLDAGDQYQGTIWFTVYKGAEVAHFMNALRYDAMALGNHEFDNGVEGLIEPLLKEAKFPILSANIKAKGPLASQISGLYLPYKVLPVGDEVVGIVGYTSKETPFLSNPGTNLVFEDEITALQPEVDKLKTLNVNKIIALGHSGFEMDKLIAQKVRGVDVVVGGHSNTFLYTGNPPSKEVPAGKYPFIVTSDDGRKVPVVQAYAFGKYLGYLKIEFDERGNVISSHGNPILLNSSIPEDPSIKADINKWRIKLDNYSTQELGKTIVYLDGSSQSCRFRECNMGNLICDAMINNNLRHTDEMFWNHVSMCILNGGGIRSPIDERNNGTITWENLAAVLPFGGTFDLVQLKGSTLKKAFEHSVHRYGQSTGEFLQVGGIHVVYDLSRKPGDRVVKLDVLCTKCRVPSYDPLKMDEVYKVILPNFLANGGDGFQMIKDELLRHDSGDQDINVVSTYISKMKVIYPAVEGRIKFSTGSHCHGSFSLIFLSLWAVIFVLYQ

| Structure (SMILES) | IC50 [1] [µM] | IC50 [3] [µM] | other results |
| --- | --- | --- | --- |
| C=C(C)[C@@H]1CC[C@]2(C(=O)O)CC[C@]3(C)[C@H](CC[C@@H]4[C@@]5(C)CC[C@H](O)[C@@](C)(CO)[C@@H]5CC[C@]43C)[C@@H]12 | > 100 |  |  |
| C=C(C)[C@@H]1CC[C@]2(C(=O)O)CC[C@]3(C)[C@H](CC[C@@H]4[C@@]5(C)CC[C@H](OC(=O)N6CCNCC6)C(C)(C)[C@@H]5CC[C@]43C)[C@@H]12 | 16.8 | 33.6 | Ratio IC50 [2]: 2 |
| C=C(C)[C@@H]1CC[C@]2(C(=O)O)CC[C@]3(C)[C@H](CC[C@@H]4[C@@]5(C)CC[C@H](OC(=O)N6CC(O)C6)C(C)(C)[C@@H]5CC[C@]43C)[C@@H]12 | > 100 | > 100 |  |
| Nc1ncnc2c1ncn2[C@@H]1O[C@H](COP(=O)(O)CP(=O)(O)O)[C@@H](O)[C@H]1O |  |  | Activity [4]: Active |
| C=C(C)[C@@H]1CC[C@]2(C(=O)O)CC[C@]3(C)[C@H](CC[C@@H]4[C@@]5(C)CC[C@H](OC(=O)N6CCCCC6)C(C)(C)[C@@H]5CC[C@]43C)[C@@H]12 |  | 14.6 | Ratio IC50 [2]: 10.5; Ratio IC50 [5]: 5.2; IC50 [6]: > 100 µM; IC50 [7]: > 100 µM |
| C=C(C)[C@@H]1CC[C@]2(C(=O)O)CC[C@]3(C)[C@H](CC[C@@H]4[C@@]5(C)CC[C@H](OC(=O)N6CCN(C)CC6)C(C)(C)[C@@H]5CC[C@]43C)[C@@H]12 | > 100 | > 100 |  |
| C=C(C)[C@@H]1CC[C@]2(C(=O)O)CC[C@]3(C)[C@H](CC[C@@H]4[C@@]5(C)CCC(=O)C(C)(C)[C@@H]5CC[C@]43C)[C@@H]12 [BETUNOLIC ACID] | 43.3 |  |  |
| C=C(C)[C@@H]1CC[C@]2(C(=O)O)CC[C@]3(C)[C@H](CC[C@@H]4[C@@]5(C)CC[C@H](OC(=O)N6CCCC6)C(C)(C)[C@@H]5CC[C@]43C)[C@@H]12 | > 100 | > 100 |  |
| C=C(C)[C@@H]1CC[C@]2(C(=O)O)CC[C@]3(C)[C@H](CC[C@@H]4[C@@]5(C)CC[C@H](OC(=O)NC(C)C)C(C)(C)[C@@H]5CC[C@]43C)[C@@H]12 | 5.69 | 59 | Ratio IC50 [2]: 10.4; Ratio IC50 [5]: 1.3; IC50 [6]: 77.2 µM; IC50 [7]: > 100 µM |
| C=C(C)[C@@H]1CC[C@]2(C(=O)O)CC[C@]3(C)[C@H](CC[C@@H]4[C@@]5(C)CC[C@H](OC(=O)NCCO)C(C)(C)[C@@H]5CC[C@]43C)[C@@H]12 | 37.2 | > 100 |  |
| C=C(C)[C@@H]1CC[C@]2(C(=O)O)CC[C@]3(C)[C@H](CC[C@@H]4[C@@]5(C)CC[C@H](O)C(C)(C)[C@@H]5CC[C@]43C)[C@@H]12 [BETULINIC ACID] | 7.28 | 68.8 | IC50 [6]: 26.7 µM; Activity [4]: Active; IC50 [7]: 19.1 µM |
| Nc1ccn([C@@H]2O[C@H](CO)[C@@H](O)C2(F)F)c(=O)n1 [GEMCITABINE] |  |  | IC50 [6]: 0.36 µM; IC50 [7]: 2.22 µM |
| C=C(C)[C@@H]1CC[C@]2(C(=O)O)CC[C@]3(C)[C@H](CC[C@@H]4[C@@]5(C)CC[C@H](OC(=O)N6CCC(N)CC6)C(C)(C)[C@@H]5CC[C@]43C)[C@@H]12 | > 100 | > 100 |  |
| C=C(C)[C@@H]1CC[C@]2(C(=O)O)CC[C@]3(C)[C@H](CC[C@@H]4[C@@]5(C)CC[C@H](OC(=O)NC6CC6)C(C)(C)[C@@H]5CC[C@]43C)[C@@H]12 | 81.4 | > 100 |  |
| C=C(C)[C@@H]1CC[C@]2(C=O)CC[C@]3(C)[C@H](CC[C@@H]4[C@@]5(C)CC[C@H](O)C(C)(C)[C@@H]5CC[C@]43C)[C@@H]12 [BETULINALDEHYDE] | > 100 |  |  |
| C=C(C)[C@@H]1CC[C@]2(C(=O)O)CC[C@]3(C)[C@H](CC[C@@H]4[C@@]5(C)CC[C@H](OC(=O)NCCN6CCOCC6)C(C)(C)[C@@H]5CC[C@]43C)[C@@H]12 | > 100 | > 100 |  |
